Reference: publication PMC11018627, “KdpD is a tandem serine histidine kinase that controls K^+ pump KdpFABC transcriptionally and post-translationally” (Nature Communications, 2024)

Columns and labels:
EcKdpD = target: T1, EcKdpD (Escherichia coli, UniProt P21865); assay: in vitro phosphorylation of KdpB, phosphoprotein gel stain; assay type: biochemical; conditions: phosphate donor of serine kinase; 5 mM ATP, 400 mM KCl, room temperature, 30 min, KdpFABC (KdpB D307N) as protein substrate
T1 construct: gene kdpD; full-length, from pBXC3H (His-tag), produced in E. coli TK2281, purified in DDM or SMALPs
T1 sequence (P21865 1-894): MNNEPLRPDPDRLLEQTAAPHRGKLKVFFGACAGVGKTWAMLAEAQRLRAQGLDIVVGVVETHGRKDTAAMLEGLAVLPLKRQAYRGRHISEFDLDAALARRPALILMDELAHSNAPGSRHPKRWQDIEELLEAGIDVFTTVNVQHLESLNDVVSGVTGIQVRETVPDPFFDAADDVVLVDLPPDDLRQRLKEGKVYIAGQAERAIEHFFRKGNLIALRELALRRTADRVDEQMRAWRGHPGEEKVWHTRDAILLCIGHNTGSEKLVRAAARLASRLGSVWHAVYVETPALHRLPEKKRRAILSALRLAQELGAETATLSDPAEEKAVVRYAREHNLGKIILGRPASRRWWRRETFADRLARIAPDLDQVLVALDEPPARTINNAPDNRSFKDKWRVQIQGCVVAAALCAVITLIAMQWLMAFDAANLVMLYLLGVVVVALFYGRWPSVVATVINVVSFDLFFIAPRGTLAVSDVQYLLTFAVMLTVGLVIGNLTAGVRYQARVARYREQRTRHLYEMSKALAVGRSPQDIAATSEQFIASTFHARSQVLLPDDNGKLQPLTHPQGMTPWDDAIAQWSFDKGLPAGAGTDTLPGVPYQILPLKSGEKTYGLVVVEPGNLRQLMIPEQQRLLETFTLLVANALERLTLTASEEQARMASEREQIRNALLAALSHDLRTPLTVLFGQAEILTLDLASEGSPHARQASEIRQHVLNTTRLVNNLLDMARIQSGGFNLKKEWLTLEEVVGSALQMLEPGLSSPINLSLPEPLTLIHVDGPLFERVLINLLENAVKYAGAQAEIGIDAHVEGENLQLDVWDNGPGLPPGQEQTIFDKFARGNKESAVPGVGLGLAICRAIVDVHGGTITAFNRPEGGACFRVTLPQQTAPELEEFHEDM

DgKdpD [1] = target: T2, DgKdpD (Deinococcus geothermalis, UniProt Q1J2K3); assay: as above; assay type: biochemical; conditions: phosphate donor of serine kinase; 5 mM ATP, 1 mM c-di-AMP, room temperature, 30 min, E. coli KdpFABC (KdpB D307N) as protein substrate
T2 construct: gene Dgeo_2852; short KdpD/Usp domain version, full chain; expressed in E. coli TK2281 from pBXC3H; His-tag removed with 3C protease on column
T2 sequence (Q1J2K3 entry or part of it): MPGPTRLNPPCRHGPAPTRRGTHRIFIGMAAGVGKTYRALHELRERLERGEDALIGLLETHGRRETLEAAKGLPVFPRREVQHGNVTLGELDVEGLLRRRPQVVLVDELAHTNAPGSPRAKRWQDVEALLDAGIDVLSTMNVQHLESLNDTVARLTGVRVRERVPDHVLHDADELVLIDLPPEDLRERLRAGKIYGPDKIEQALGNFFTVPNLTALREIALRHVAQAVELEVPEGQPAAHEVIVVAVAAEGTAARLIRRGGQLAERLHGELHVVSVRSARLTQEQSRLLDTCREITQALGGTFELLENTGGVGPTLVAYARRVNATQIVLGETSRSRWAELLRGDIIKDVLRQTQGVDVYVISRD

KdpFABC = target: T3, KdpFABC (Escherichia coli, UniProt P03960); conditions: 2 mM ATP, 1 mM KCl, 37 °C; non-phosphorylated complex purified from E. coli TK2281
T3 construct: gene kdpB
T3 sequence (P03959 whole entry): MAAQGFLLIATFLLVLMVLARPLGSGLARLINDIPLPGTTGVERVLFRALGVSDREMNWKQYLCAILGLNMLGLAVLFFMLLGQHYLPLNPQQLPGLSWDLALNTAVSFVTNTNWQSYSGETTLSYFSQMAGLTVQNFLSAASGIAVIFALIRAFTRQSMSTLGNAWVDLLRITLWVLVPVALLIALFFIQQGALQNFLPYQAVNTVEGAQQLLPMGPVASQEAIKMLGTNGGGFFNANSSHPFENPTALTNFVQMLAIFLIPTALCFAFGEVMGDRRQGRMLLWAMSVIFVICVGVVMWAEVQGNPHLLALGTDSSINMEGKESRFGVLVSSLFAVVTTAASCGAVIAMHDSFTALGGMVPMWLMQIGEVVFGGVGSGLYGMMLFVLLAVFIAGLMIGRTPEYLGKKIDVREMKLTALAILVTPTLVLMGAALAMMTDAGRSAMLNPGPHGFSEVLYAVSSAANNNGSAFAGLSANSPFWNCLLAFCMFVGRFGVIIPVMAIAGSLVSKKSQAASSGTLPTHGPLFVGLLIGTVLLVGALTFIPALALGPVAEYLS
T3 sequence (P36937 whole entry, further chain): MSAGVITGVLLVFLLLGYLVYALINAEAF
T3 sequence (P03961 whole entry, further chain): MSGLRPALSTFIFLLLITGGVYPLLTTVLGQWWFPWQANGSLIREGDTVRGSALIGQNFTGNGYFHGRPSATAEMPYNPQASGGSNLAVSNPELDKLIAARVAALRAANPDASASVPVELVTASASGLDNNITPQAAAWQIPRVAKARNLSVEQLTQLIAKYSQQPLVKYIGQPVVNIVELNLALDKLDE
T3 sequence (P03960 whole entry): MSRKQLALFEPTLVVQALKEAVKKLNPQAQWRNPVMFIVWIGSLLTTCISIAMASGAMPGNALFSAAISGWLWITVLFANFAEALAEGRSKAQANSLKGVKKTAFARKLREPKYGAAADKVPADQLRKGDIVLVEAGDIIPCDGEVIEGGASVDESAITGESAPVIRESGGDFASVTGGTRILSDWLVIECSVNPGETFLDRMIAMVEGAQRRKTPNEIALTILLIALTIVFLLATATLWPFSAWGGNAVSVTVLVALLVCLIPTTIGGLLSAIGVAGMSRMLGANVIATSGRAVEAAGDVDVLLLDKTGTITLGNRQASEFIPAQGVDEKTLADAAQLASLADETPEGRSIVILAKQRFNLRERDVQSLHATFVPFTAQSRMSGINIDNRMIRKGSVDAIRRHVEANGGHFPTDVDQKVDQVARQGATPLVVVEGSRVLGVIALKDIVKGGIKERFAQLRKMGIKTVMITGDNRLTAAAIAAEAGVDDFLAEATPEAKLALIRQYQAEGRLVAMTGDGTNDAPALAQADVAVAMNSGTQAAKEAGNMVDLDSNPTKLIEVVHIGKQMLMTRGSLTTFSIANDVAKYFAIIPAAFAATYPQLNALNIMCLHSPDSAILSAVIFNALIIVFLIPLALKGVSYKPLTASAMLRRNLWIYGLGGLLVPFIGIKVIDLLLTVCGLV

KdpDNTD = target: T4, KdpDNTD (Escherichia coli, UniProt P21865); assay: in vitro phosphorylation of KdpB, phosphoprotein gel stain; assay type: biochemical; conditions: phosphate donor of serine kinase; 5 mM ATP, 400 mM KCl, room temperature, 30 min, KdpFABC (KdpB D307N) as protein substrate; no ATPase activity alone
T4 construct: gene kdpD

DgKdpD [2] = target: T2, DgKdpD; assay: in vitro phosphorylation of E. coli KdpB, phosphoprotein gel stain; assay type: biochemical; conditions: activator; 1 mM c-di-AMP, 5 mM ATP, E. coli KdpFABC (KdpB D307N) as protein substrate, room temperature, 30 min

Row | in vitro phosphorylation of KdpB, phosphoprotein gel stain (DgKdpD [1]) | Compound | in vitro phosphorylation of KdpB, phosphoprotein gel stain (EcKdpD) | malachite green ATPase assay (KdpFABC) | in vitro phosphorylation of KdpB, phosphoprotein gel stain (KdpDNTD) | stimulation of ASK activity at 1 mM (DgKdpD [2])
1 | DgKdpD can phosphorylate E. coli KdpB | Nc1ncnc2c1ncn2[C@@H]1O[C@H](COP(=O)(O)OP(=O)(O)OP(=O)(O)O)[C@@H](O)[C@H]1O [ATP] | Upon incubation with full-length KdpD, the phosphorylation was fully restored | KdpFABC produced under these conditions showed a high ATPase activity | This truncated construct remained able to phosphorylate KdpB | –
2 | – | Nc1ncnc2c1ncn2[C@@H]1O[C@@H]2COP(=O)(O)O[C@H]3[C@@H](O)[C@H](n4cnc5c(N)ncnc54)O[C@@H]3COP(=O)(O)O[C@H]2[C@H]1O [c-di-AMP] | – | – | – | phosphorylation of E. coli KdpB by DgKdpD was stimulated in the presence of c-di-AMP
